In PubChem BioAssay (NCI) one finds GI50 and TGI data, which are given here for two molecules.

Some test systems named below: BT-549 breast; COLO 205 colon; HL-60(TB) leukemia; LOX IMVI melanoma; NCI-H226 lung; OVCAR-8 ovarian; SF-539 CNS; SK-MEL-5 melanoma; SK-OV-3 ovarian; SNB-75 CNS.
Holding throughout (test): NCI-60 cell line screen, 48 h

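Five concentrations, 48 hours, 96-well plates. At the GI50, growth is halved. TGI marks complete inhibition of growth.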

In the case of `O=C(NCCc1ccccn1)OCc1nc2nc(Cl)nc(N3CCOCC3)c2[nH]1`, the GI50 in the assay with BT-549 breast was 2220 nM; in the assay with COLO 205 colon, 2440 nM; with HL-60(TB) leukemia, 1830 nM; in the assay with LOX IMVI melanoma it was 372 nM; with NCI-H226 lung it was 1610 nM; with OVCAR-8 ovarian it was 3170 nM. Moreover, the GI50 with SF-539 CNS is 1500 nM; in the assay on SK-MEL-5 melanoma, 2100 nM; in the assay on SK-OV-3 ovarian it was 6.11 µM; in the assay with SNB-75 CNS, 2420 nM. In addition, the TGI came to 6.83 µM with BT-549 breast; 6.12 µM with COLO 205 colon; 4.96 µM in the assay on HL-60(TB) leukemia; 1610 nM in the assay with LOX IMVI melanoma; 3.29 µM in the assay with NCI-H226 lung; 15.4 µM in the assay on OVCAR-8 ovarian. The TGI came out at 2850 nM in the assay on SF-539 CNS, 4540 nM in the assay with SK-MEL-5 melanoma, 19.5 µM in the assay with SK-OV-3 ovarian and 15.5 µM with SNB-75 CNS.

With `Cc1nc(Nc2ccccn2)sc1C(=O)/C=C/c1ccc(Cl)cc1`, the GI50 was 344 nM in the assay with BT-549 breast; 322 nM with COLO 205 colon; 353 nM in the assay with HL-60(TB) leukemia; 458 nM with LOX IMVI melanoma; 1090 nM with NCI-H226 lung; 472 nM in the assay on OVCAR-8 ovarian. Moreover, the GI50 with SF-539 CNS was 252 nM; in the assay with SK-MEL-5 melanoma, 339 nM; in the assay with SK-OV-3 ovarian, 0.494 µM; with SNB-75 CNS, 296 nM. For the same molecule, the TGI in the assay with BT-549 breast was 8.64 µM; in the assay on COLO 205 colon it was 1.35 µM; with LOX IMVI melanoma it was > 40800 nM; in the assay with NCI-H226 lung, 26 µM; in the assay with OVCAR-8 ovarian it was > 100 µM; in the assay with SF-539 CNS, 812 nM. Further, the TGI in the assay with SK-MEL-5 melanoma was 1430 nM; in the assay on SK-OV-3 ovarian, > 100 µM; with SNB-75 CNS, 24.7 µM.
